Data reported in US20210040118A1, “IMMUNOMODULATORS, COMPOSITIONS AND METHODS THEREOF” (BETTA PHARMACEUTICALS CO., LTD, priority 2018, published 2021).

target: T1, PD-1/PD-L1 (Homo sapiens, UniProt Q9NZQ7); test: PD-1/PD-L1 homogenous time-resolved fluorescence (HTRF) binding assay; conditions: recombinant human PD-L1 (19-238) His-tag / human PD-1 (25-167) Fc tag, class symbols
T1 construct: Recombinant human PD-L1 protein (19-238) with a His-tag at the C-terminus; purchased AcroBiosystems PD1-H5229 (PD-L1); PD1-H5257 (PD-1)
In short: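 Inhibitors were preincubated 40 min at 25°C with 10 nM His-tagged human PD-L1 (19-238) and 3 nM Fc-tagged human PD-1 (25-167) in PBS pH 7.4 containing Tween-20, BSA and 1% DMSO. After 60 min with europium anti-human IgG and anti-His-APC, 665/620 nm signal ratio gave IC50 via percent-control fit.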

T1 sequence (Q9NZQ7 19-238): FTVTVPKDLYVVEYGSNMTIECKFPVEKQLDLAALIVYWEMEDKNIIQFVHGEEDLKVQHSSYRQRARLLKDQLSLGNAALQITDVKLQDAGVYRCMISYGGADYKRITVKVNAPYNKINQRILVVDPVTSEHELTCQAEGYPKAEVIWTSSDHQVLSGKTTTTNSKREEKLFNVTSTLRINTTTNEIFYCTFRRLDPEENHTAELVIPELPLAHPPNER

| Compound | IC50 [nM] |
| --- | --- |
| Cc1c(NC(=O)c2ncc(CNCCO)s2)cccc1-c1cccc(NC(=O)c2ncc(CNCCO)s2)c1C [Example 7, N,N′-(2,2′-dimethyl-[1,1′-biphenyl]-3,3′-diyl)bis(5-(((2-hydroxyethyl)amino)methyl)thiazole-2-carboxamide)] | < 25 |
| Cc1c(NC(=O)c2nnc(CNCCO)s2)cccc1-c1cccc(NC(=O)c2nnc(CNCCO)s2)c1C [Example 73, N,N′-(2,2′-dimethyl-[1,1′-biphenyl]-3,3′-diyl)bis(5-(((2-hydroxyethyl)amino)methyl)-1,3,4-thiadiazole-2-carboxamide)] | < 25 |
| Cc1c(NC(=O)c2nc3cc(N)ccc3[nH]2)cccc1-c1cccc(NC(=O)c2nc3c(s2)CNCC3)c1C [Example 12, N-(3′-(5-amino-1H-benzo[d]imidazole-2-carboxamido)-2,2′-dimethyl-[1,1′-biphenyl]-3-yl)-4,5,6,7-tetrahydrothiazolo[5,4-c]pyridine-2-carboxamide] | 25 to 100 |
| Cc1c(NC(=O)c2nc3c(s2)CN(CC(C)(C)CO)CC3)cccc1-c1cccc(NC(=O)c2nc3c(s2)CN(CC(C)(C)CO)CC3)c1C [Example 76, N,N′-(2,2′-dimethyl-[1,1′-biphenyl]-3,3′-diyl)bis(5-(3-hydroxy-2,2-dimethylpropyl)-4,5,6,7-tetrahydrothiazolo[5,4-c]pyridine-2-carboxamide)] | < 25 |
| Cc1c(NC(=O)c2nc3c(s2)CNCC3)cc(Cl)cc1-c1cc(Cl)cc(NC(=O)c2nc3c(s2)CNCC3)c1C [Example 93, N,N′-(5,5′-dichloro-2,2′-dimethyl-[1,1′-biphenyl]-3,3′-diyl)bis(4,5,6,7-tetrahydrothiazolo[5,4-c]pyridine-2-carboxamide)] | < 25 |
| CC(c1nc2c(s1)CN(C)CC2)N1CCc2c(-c3cccc4c3CCN4C(C)c3nc4c(s3)CN(C)CC4)cccc21 (stereo not drawn) [Example 47, 1,1′-bis(1-(5-methyl-4,5,6,7-tetrahydrothiazolo[5,4-c]pyridin-2-yl)ethyl)-4,4′-biindoline] | < 25 |
| Cc1c(NC(=O)c2nnc(CN)s2)cccc1-c1cccc(NC(=O)c2nnc(CN)s2)c1C [Example 20, N,N′-(2,2′-dimethyl-[1,1′-biphenyl]-3,3′-diyl)bis(5-(aminomethyl)-1,3,4-thiadiazole-2-carboxamide)] | < 25 |
| Cc1c(NC(=O)c2nnc(C(C)N)o2)cccc1-c1cccc(NC(=O)c2nnc(C(C)N)o2)c1C (stereo not drawn) [Example 19, N,N′-(2,2′-dimethyl-[1,1′-biphenyl]-3,3′-diyl)bis(5-(1-aminoethyl)-1,3,4-oxadiazole-2-carboxamide)] | 25 to 100 |
| Cc1c(NC(=O)c2nnc([C@@H]3CCCN3)s2)cccc1-c1cccc(NC(=O)c2nnc([C@@H]3CCCN3)s2)c1C [Example 3, N,N′-(2,2′-dimethyl-[1,1′-biphenyl]-3,3′-diyl)bis(5-((S)-pyrrolidin-2-yl)-1,3,4-thiadiazole-2-carboxamide)] | < 25 |
| Cc1c(NC(=O)c2nnc([C@H](C)N)s2)cccc1-c1cccc(NC(=O)c2nnc([C@H](C)N)s2)c1C [Example 31, N,N′-(2,2′-dimethyl-[1,1′-biphenyl]-3,3′-diyl)bis(5-((S)-1-aminoethyl)-1,3,4-thiadiazole-2-carboxamide)] | < 25 |
| Cc1c(NC(=O)c2cn3c(n2)CN(C(C)CO)CC3)cccc1-c1cccc(NC(=O)c2cn3c(n2)CN(C(C)CO)CC3)c1C (stereo not drawn) [Example 36, N,N′-(2,2′-dimethyl-[1,1′-biphenyl]-3,3′-diyl)bis(7-(1-hydroxypropan-2-yl)-5,6,7,8-tetrahydroimidazo[1,2-a]pyrazine-2-carboxamide)] | < 25 |
| Cc1c(-c2cccc(N(C)C(=O)c3cc4c(s3)CCNC4)c2C)cccc1N(C)C(=O)c1cn2c(n1)CNCC2 [Example 34, N-(2,2′-dimethyl-3′-(N-methyl-5,6,7,8-tetrahydroimidazo[1,2-a]pyrazine-2-carboxamido)-[1,1′-biphenyl]-3-yl)-N-methyl-4,5,6,7-tetrahydrothieno[3,2-c]pyridine-2-carboxamide] | < 25 |
| Cc1c(NC(=O)c2nnc(C3(NC(=N)N)CCC3)s2)cccc1-c1cccc(NC(=O)c2nnc(C3(NC(=N)N)CCC3)s2)c1C [Example 38, N,N′-(2,2′-dimethyl-[1,1′-biphenyl]-3,3′-diyl)bis(5-(1-guanidinocyclobutyl)-1,3,4-thiadiazole-2-carboxamide)] | < 25 |
| Cc1c(Nc2nccc3cc(CNCCO)cnc23)cccc1-c1cccc(Nc2nccc3cc(NCCO)cnc23)c1C [Example 6, 2-(((8-((3′-((3-((2-hydroxyethyl)amino)-1,7-naphthyridin-8-yl)amino)-2,2′-dimethyl-[1,1′-biphenyl]-3-yl)amino)-1,7-naphthyridin-3-yl)methyl)amino)ethan-1-ol] | < 25 |
| O=C(O)CN1C2CCC1c1sc(C(=O)N3CCc4c(-c5cccc6c5CCN6C(=O)c5nc6c(s5)C5CCC(C6)N5CC(=O)O)cccc43)nc1C2 [Example 110, 2,2′-(([4,4′-biindoline]-1,1′-dicarbonyl)bis(5,6,7,8-tetrahydro-4H-5,8-epiminocyclohepta[d]thiazole-2,9-diyl))diacetic acid] | < 25 |

Continued, values first:

| IC50 [nM] | Compound |
| --- | --- |
| < 25 | Cc1ccc(-c2ccc(C)c(NC(=O)c3nc4c(s3)CNCC4)c2C)c(C)c1NC(=O)c1nc2c(s1)CNCC2 [Example 94, N,N′-(2,2′,4,4′-tetramethyl-[1,1′-biphenyl]-3,3′-diyl)bis(4,5,6,7-tetrahydrothiazolo[5,4-c]pyridine-2-carboxamide)] |
| 25 to 100 | Cc1c(NC(=O)c2ccc3c(n2)CCN(CC(F)F)C3)cccc1-c1cccc(NC(=O)c2ccc3c(n2)CCN(CC(F)F)C3)c1C [Example 187, N,N′-(2,2′-dimethyl-[1,1′-biphenyl]-3,3′-diyl)bis(6-(2,2-difluoroethyl)-5,6,7,8-tetrahydro-1,6-naphthyridine-2-carboxamide)] |
| < 25 | NC(=S)NCCN1CCc2nc(C(=O)N3CCc4c(-c5cccc6c5CCN6C(=O)c5nc6c(s5)CN(CCNC(N)=S)CC6)cccc43)sc2C1 [Example 133, 1,1′-((([4,4′-biindoline]-1,1′-dicarbonyl)bis(6,7-dihydrothiazolo[5,4-c]pyridine2,5(4H)-diyl))bis(ethane-2,1-diyl))bis(thiourea)] |
| < 25 | Cc1c(Nc2nccc3cc(CNCC(=O)O)cnc23)cccc1-c1cccc(Nc2nccc3cc(CNCC(=O)N(C)C)cnc23)c1C [Example 148, ((8-((3′-((3-(((2-(dimethylamino)-2-oxoethyl)amino)methyl)-1,7-naphthyridin-8-yl)amino)-2,2′-dimethyl-[1,1′-biphenyl]-3-yl)amino)-1,7-naphthyridin-3-yl)methyl)glycine] |
| < 25 | Cc1c(Nc2nccc3cc(CNCC(=O)O)cnc23)cccc1-c1cccc(Nc2nccc3cc(CNC[C@@H](O)CC(=O)O)cnc23)c1C [Example 141, (S)-4-(((8-((3′-((3-(((carboxymethyl)amino)methyl)-1,7-naphthyridin-8-yl)amino)-2,2′-dimethyl-[1,1′-biphenyl]-3-yl)amino)-1,7-naphthyridin-3-yl)methyl)amino)-3-hydroxybutanoic acid] |
| < 25 | CC(=O)N1CCc2c(nc(C(=O)Nc3cccc(-c4cccc(NC(=O)c5ccc6c(n5)CCNC6)c4C)c3C)n2C)C1 [Example 183, N-(3′-(5-acetyl-1-methyl-4,5,6,7-tetrahydro-1H-imidazo[4,5-c]pyridine-2-carboxamido)-2,2′-dimethyl-[1,1′-biphenyl]-3-yl)-5,6,7,8-tetrahydro-1,6-naphthyridine-2-carboxamide] |
| 25 to 100 | Cc1c(NC(=O)c2ccc3c(n2)CCN(CCN2CCOCC2)C3)cccc1-c1cccc(NC(=O)c2ccc3c(n2)CCN(CCN2CCOCC2)C3)c1C [Example 176, N,N′-(2,2′-dimethyl-[1,1′-biphenyl]-3,3′-diyl)bis(6-(2-morpholinoethyl)-5,6,7,8-tetrahydro-1,6-naphthyridine-2-carboxamide)] |
| < 25 | Cc1c(Nc2nccc3cc(CNCC(=O)N(C)C)cnc23)cccc1-c1cccc2c1CCN2C(=O)C1=NC2CCN(CC(=O)O)CC2S1 (stereo not drawn) [Example 165, 2-(2-(4-(3-((3-(((2-(dimethylamino)-2-oxoethyl)amino)methyl)-1,7-naphthyridin-8-yl)amino)-2-methylphenyl)indoline-1-carbonyl)-3a,6,7,7a-tetrahydrothiazolo[5,4-c]pyridin-5(4H)-yl)acetic acid] |
| < 25 | COB(CCCN1CCc2nc(C(=O)N3CCc4c(-c5cccc6c5CCN6C(=O)c5nc6c(s5)CN(CCCB(OC)OC)CC6)cccc43)sc2C1)OC [Example 122, tetramethyl((([4,4′-biindoline]-1,1′-dicarbonyl)bis(6,7-dihydrothiazolo[5,4-c]pyridine-2,5(4H)-diyl))bis(propane-3,1-diyl))diboronate] |
| < 25 | Cc1c(Nc2nccc3cc(CN4CC[C@H](N(C)C)C4)cnc23)cccc1-c1cccc(Nc2nccc3cc(CN4CC[C@H](N(C)C)C4)cnc23)c1C [Example 153, N3,N3′-bis(3-(((S)-3-(dimethylamino)pyrrolidin-1-yl)methyl)-1,7-naphthyridin-8-yl)-2,2′-dimethyl-[1,1′-biphenyl]-3,3′-diamine] |
| 25 to 100 | CC(C)(C(=O)NS(C)(=O)=O)N1CCc2nc(C(=O)N3CCc4c(-c5cccc6c5CCN6C(=O)c5nc6c(s5)CN(C(C)(C)C(=O)NS(C)(=O)=O)CC6)cccc43)sc2C1 [Example 128, 2,2′-(([4,4′-biindoline]-1,1′-dicarbonyl)bis(6,7-dihydrothiazolo[5,4-c]pyridine-2,5(4H)-diyl))bis(2-methyl-N-(methylsulfonyl)propanamide)] |

same assay, conditions: recombinant human PD-L1 (19-238) His-tag / human PD-1 (25-167) Fc tag, numeric values

| IC50 [nM] | Compound |
| --- | --- |
| 3.13 | Cc1c(NC(=O)c2nnc(C3(N)CCC3)s2)cccc1-c1cccc(NC(=O)c2nnc(C3(N)CCC3)s2)c1C [Example 27, N,N′-(2,2′-dimethyl-[1,1′-biphenyl]-3,3′-diyl)bis(5-(1-aminocyclobutyl)-1,3,4-thiadiazole-2-carboxamide)] |
